Experimental data taken from US20260157950A1, “Compounds and Cosmetic, Dermocosmetic, Cosmeceutical or Pharmaceutical Compositions for Relaxing Muscles, Including the Skeletal Muscles of the Face, for Anti-Aging Cosmetic Action, for Reducing and/or Smoothing Expression Lines and Wrinkles and/or for Antiperspirant Action, Uses and Methods” (Chemyunion Ltda, priority 2022, published 2026).
Ends that are not written are not given here. * marks the point of attachment. Palmitoyl = CCCCCCCCCCCCCCCC(=O)*

Test system: nasolabial and glabellar wrinkles
Assay: Assessment of clinical efficacy: topical facial treatment for 28 days, wrinkle evaluation with Bio3D Structured-light Scanner
Format: in vivo, human
Details: Day 28 vs Day 0, topical formulation containing peptide at 500 ppm, 10 volunteers per group
Protocol: Two groups of 10 volunteers underwent 28 days of topical treatment with the peptides SEQ NO ID 1 (Pro-Trp-Lys-Trp) or SEQ NO ID 2 (Pal-Pro-Thr-Lys-Trp) in the facial region. Nasolabial and glabellar lines were evaluated on Day 0 (before) and Day 28 (after 4 weeks of treatment) using Bio3D Structured-light Scanner. For wrinkle evaluation, images of the different areas were taken and processed through specific software. Three parameters (total area, length and depth of wrinkles) were obtained for each of the areas in each of the volunteers.

| Substance | Decreased wrinkle intensity (D 28/D 0): Wrinkle area [%] | Decreased wrinkle intensity (D 28/D 0): Wrinkle depth [%] | Decreased wrinkle intensity (D 28/D 0): Wrinkle length [%] |
| --- | --- | --- | --- |
| Pal-Pro-Thr-Lys-Trp (Palmitoyl-PTKW) [SEQ NO ID 2, N-palmitoylated peptide] | −7.81 | −6.59 | −11.76 |
| Pro-Trp-Lys-Trp (PWKW) [SEQ NO ID 1] | −10.92 | −9.23 | −14.97 |
